# Patent US11117905B2, “Bisaryl heterocycles as NRF2 activators” (GLAXOSMITHKLINE INTELLECTUAL PROPERTY DEVELOPMENT LIMITED, priority 2016, dated 2021)
# Test system: NQO1 specific enzyme activity in BEAS-2B cells (marker for NRF2 activation)
# Assay: BEAS-2B NQO1 MTT Assay
# Format: cell-based
# Conditions: Homo sapiens, BEAS-2B, 48 h, NQO1 specific activity induction, 48 hours with compound
# Excerpt: NAD(P)H:quinone oxidoreductase 1 (NQO1), also called DT diaphorase, is a homodimeric FAD-containing enzyme that catalyzes obligatory NAD(P)H-dependent two-electron reductions of quinones and protects cells against the toxic and neoplastic effects of free radicals and reactive oxygen species arising from one-electron reductions. The transcription of NQO1 is finely regulated by NRF2, and thus NQO1 activity is a good marker for NRF2 activation. On day one, frozen BEAS-2B cells (ATCC) were thawed in a water bath, counted, and re-suspended at a concentration of 250,000 cells/mL. Fifty microliters of cells were plated in 384 well black clear-bottomed plates. Plates were incubated at 37° C., 5% CO2 overnight. On day two, plates were centrifuged and 50 nL of compound or controls were added to the cells. Plates were then incubated at 37° C., 5% CO2 for 48 hours. On day four, medium was aspirated from the plate and crude cell lysates were made by adding 13 uL of 1× Cell Signaling Technologies lysis buffer with 1 Complete, Mini, EDTA-free Protease Inhibitor Tablet (Roche) for each 10 mL of lysis buffer. After lysis plates were incubated for 20 minutes at room temperature. Two microliters of lysate were removed for use in Cell Titer Glo assay (Promega) and MTT cocktail was prepared (Prochaska et. al. 1998) for measurement of NQO1 activity. Fifty microliters of MTT cocktail is added to each well, plate is centrifuged, and analyzed on an Envision plate reader (Perkin Elmer) using Absorbance 570 nm label for 30 minutes. Product formation was measured kinetically and the pEC50 of NQO1 specific activity induction was calculated by plotting the change in absorbance (Delta OD/min) versus the log of compound concentration followed by 3-parameter fitting.
# pEC50 is the negative log of the EC50.
# EC50s<1 nM (+++++), EC50s 1 nM-10 nM (++++), EC50s 10 nM-100 nM (+++), EC50s 100 nM-1 uM (++), EC50s 1 uM-10 uM (+), EC50s>10 uM (−), or were not determined (ND).
row,SMILES,EC50
1,"CCn1nnc2c(C)c([C@H](c3cc(CN4C[C@@H](C)Cc5ccccc5S4(=O)=O)c(C)s3)C(C)(C)C(=O)O)ccc21 [Example 18, (S)-3-(1-Ethyl-4-methyl-1H-benzo[d][1,2,3]triazol-5-yl)-2,2-dimethyl-3-(5-methyl-4-(((S)-4-methyl-1,1-dioxido-4,5-dihydrobenzo[f][1,2]thiazepin-2(3H)-yl)methyl)thiophen-2-yl)propanoic Acid]",< 1 nM
2,"CCn1nnc2c(C)c([C@H](c3cc(CN4C[C@@H](C)Cc5ncccc5S4(=O)=O)c(C)s3)C(C)(C)C(=O)O)ccc21 [Example 19, (S)-3-(1-Ethyl-4-methyl-1H-benzo[d][1,2,3]triazol-5-yl)-2,2-dimethyl-3-(5-methyl-4-(((S)-4-methyl-1,1-dioxido-4,5-dihydropyrido[2,3-f][1,2]thiazepin-2(3H)-yl)methyl)thiophen-2-yl)propanoic Acid]",< 1 nM
3,"CC[C@@H]1CN(Cc2cc([C@H](CC(=O)O)c3ccc4c(nnn4CC)c3C)sc2Cl)S(=O)(=O)c2cnccc2O1 [Example 22, (R)-3-(5-chloro-4-(((R)-4-ethyl-1,1-dioxido-3,4-dihydro-2H-pyrido[4,3-b][1,4,5]oxathiazepin-2-yl)methyl)thiophen-2-yl)-3-(1-ethyl-4-methyl-1H-benzo[d][1,2,3]triazol-5-yl)propanoic Acid]",10 to 100 nM
4,"CCn1nnc2c(C)c([C@@H](c3cc(CN4C[C@@H](C)Cc5ncccc5S4(=O)=O)n(C)n3)C(C)(C)C(=O)O)ccc21 [Example 23, (R)-3-(1-Ethyl-4-methyl-1H-benzo[d][1,2,3]triazol-5-yl)-2,2-dimethyl-3-(1-methyl-5-(((S)-4-methyl-1,1-dioxido-4,5-dihydropyrido[2,3-f][1,2]thiazepin-2(3H)-yl)methyl)-1H-pyrazol-3-yl)propanoic Acid]",1000 to 10000 nM
5,"CC[C@@H]1CN(Cc2cc([C@@H](CC(=O)O)c3ccc4c(nnn4CC)c3C)sc2C)S(=O)(=O)c2cccnc2O1 [Example 24, (S)-3-(4-(((R)-4-Ethyl-1,1-dioxido-3,4-dihydro-2H-pyrido[2,3-b][1,4,5]oxathiazepin-2-yl)methyl)-5-methylthiophen-2-yl)-3-(1-ethyl-4-methyl-1H-benzo[d][1,2,3]triazol-5-yl)propanoic Acid]",100 to 1000 nM
6,"CC[C@@H]1CN(Cc2nc([C@@H](c3ccc4c(nnn4CC)c3C)C(C)(C)C(=O)Nc3cccnc3)sc2C)S(=O)(=O)c2cccnc2O1 [Example 25, (S)-3-(4-(((R)-4-Ethyl-1,1-dioxido-3,4-dihydro-2H-pyrido[2,3-b][1,4,5]oxathiazepin-2-yl)methyl)-5-methylthiazol-2-yl)-3-(1-ethyl-4-methyl-1H-benzo[d][1,2,3]triazol-5-yl)-2,2-dimethyl-N-(pyridin-3-yl)propanamide]",100 to 1000 nM
7,"CC[C@@H]1CN(Cc2nc([C@@H](c3ccc4c(nnn4CC)c3C)C(C)(C)C(=O)O)sc2C)S(=O)(=O)c2cccnc2O1 [Example 26, (S)-3-(4-(((R)-4-Ethyl-1,1-dioxido-3,4-dihydro-2H-pyrido[2,3-b][1,4,5]oxathiazepin-2-yl)methyl)-5-methylthiazol-2-yl)-3-(1-ethyl-4-methyl-1H-benzo[d][1,2,3]triazol-5-yl)-2,2-dimethylpropanoic Acid]",1 to 10 nM
8,"CC[C@@H]1CN(Cc2nc([C@@H](c3ccc4c(nnn4CC)c3C)C(C)(C)C(=O)O)sc2C)S(=O)(=O)c2cnccc2O1 [Example 27, (S)-3-(4-(((R)-4-Ethyl-1,1-dioxido-3,4-dihydro-2H-pyrido[4,3-b][1,4,5]oxathiazepin-2-yl)methyl)-5-methylthiazol-2-yl)-3-(1-ethyl-4-methyl-1H-benzo[d][1,2,3]triazol-5-yl)-2,2-dimethylpropanoic Acid]",< 1 nM
9,"CC[C@@H]1CN(Cc2nc([C@@H](c3ccc4c(nnn4CC)c3C)C(C)(C)C(=O)Nc3cccnc3)sc2C)S(=O)(=O)c2cnccc2O1 [Example 28, (S)-3-(4-(((R)-4-Ethyl-1,1-dioxido-3,4-dihydro-2H-pyrido[4,3-b][1,4,5]oxathiazepin-2-yl)methyl)-5-methylthiazol-2-yl)-3-(1-ethyl-4-methyl-1H-benzo[d][1,2,3]triazol-5-yl)-2,2-dimethyl-N-(pyridin-3-yl)propanamide]",100 to 1000 nM
10,"CC[C@@H]1CN(Cc2nc([C@@H](c3ccc4c(nnn4CC)c3C)C(C)(C)C(=O)O)sc2C)S(=O)(=O)c2ncccc2O1 [Example 29, (S)-3-(4-(((R)-4-Ethyl-1,1-dioxido-3,4-dihydro-2H-pyrido[3,2-b][1,4,5]oxathiazepin-2-yl)methyl)-5-methylthiazol-2-yl)-3-(1-ethyl-4-methyl-1H-benzo[d][1,2,3]triazol-5-yl)-2,2-dimethylpropanoic Acid]",1 to 10 nM
11,"CC[C@@H]1CN(Cc2nc([C@@H](c3ccc4c(nnn4CC)c3C)C(C)(C)C(=O)Nc3cccnc3)sc2C)S(=O)(=O)c2ncccc2O1 [Example 30, (S)-3-(4-(((R)-4-Ethyl-1,1-dioxido-3,4-dihydro-2H-pyrido[3,2-b][1,4,5]oxathiazepin-2-yl)methyl)-5-methylthiazol-2-yl)-3-(1-ethyl-4-methyl-1H-benzo[d][1,2,3]triazol-5-yl)-2,2-dimethyl-N-(pyridin-3-yl)propanamide]",100 to 1000 nM
12,"CCn1nnc2c(C)c([C@H](c3cc(CN4C[C@@H](C)Cc5ncccc5S4(=O)=O)n(C)n3)C(C)(C)C(=O)O)ccc21 [Example 31, (S)-3-(1-Ethyl-4-methyl-1H-benzo[d][1,2,3]triazol-5-yl)-2,2-dimethyl-3-(1-methyl-5-(((S)-4-methyl-1,1-dioxido-4,5-dihydropyrido[2,3-f][1,2]thiazepin-2(3H)-yl)methyl)-1H-pyrazol-3-yl)propanoic Acid]",100 to 1000 nM
13,"CCn1nnc2c(C)c([C@H](c3cc(CN4CCC[C@H](n5cccn5)C4)c(C)s3)C(C)(C)C(=O)O)ccc21 [Example 32, (S)-3-(4-(((S)-3-(1H-Pyrazol-1-yl)piperidin-1-yl)methyl)-5-methylthiophen-2-yl)-3-(1-ethyl-4-methyl-1H-benzo[d][1,2,3]triazol-5-yl)-2,2-dimethylpropanoic acid]",100 to 1000 nM
14,"CC[C@H]1Cc2ncccc2S(=O)(=O)N(Cc2nc([C@@H](c3ccc4c(nnn4CC)c3C)C(C)(C)C(=O)O)sc2C)C1 [Example 33, (S)-3-(4-(((S)-4-Ethyl-1,1-dioxido-4,5-dihydropyrido[2,3-f][1,2]thiazepin-2(3H)-yl)methyl)-5-methylthiazol-2-yl)-3-(1-ethyl-4-methyl-1H-benzo[d][1,2,3]triazol-5-yl)-2,2-dimethylpropanoic Acid]",< 1 nM
15,"CC[C@H]1Cc2ncccc2S(=O)(=O)N(Cc2nc([C@@H](c3ccc4c(nnn4CC)c3C)C(C)(C)C(=O)Nc3cccnc3)sc2C)C1 [Example 34, (S)-3-(4-(((S)-4-Ethyl-1,1-dioxido-4,5-dihydropyrido[2,3-f][1,2]thiazepin-2(3H)-yl)methyl)-5-methylthiazol-2-yl)-3-(1-ethyl-4-methyl-1H-benzo[d][1,2,3]triazol-5-yl)-2,2-dimethyl-N-(pyridin-3-yl)propanamide]",100 to 1000 nM
16,"CC[C@@H]1CN(Cc2cc([C@H](c3ccc4c(nnn4CC)c3C)C(C)(C)C(=O)O)sc2Cl)S(=O)(=O)c2cnccc2O1 [Example 36, (R)-3-(5-Chloro-4-(((R)-4-ethyl-1,1-dioxido-3,4-dihydro-2H-pyrido[4,3-b][1,4,5]oxathiazepin-2-yl)methyl)thiophen-2-yl)-3-(1-ethyl-4-methyl-1H-benzo[d][1,2,3]triazol-5-yl)-2,2-dimethylpropanoic Acid]",100 to 1000 nM
